How the values were obtained:
4188 cells = test: Cell density, cell death and proliferation of lymphoma cells after c-myc siRNA delivery; type: cell-based, mice; conditions: approximately 24 h treatment, light microscopy
Description: These conjugates were used to treat T-cell lymphoma cells, 4188 cells, which were derived from mice overexpressing human myc. Control experiments were also performed where the 4188 cells were exposed to a mixture of SWNT and siRNAmyc (no covalent linkage), to lipofectamine-siRNAmyc complex or to the antibiotic doxicycline (DOX). The 4188 cells used in this experiment had been previously engineered to be tet-regulatable such that the myc gene can be turned off by treatment with DOX.
The 4188 cells are non-adherent cells, typically cultured in RPMI 1640 medium supplemented with fetal bovine serum, penicillin/streptomycin and betamercaptoethanol. The cells were engineered to have tet-regulatable MYC, which can be regulated by the antibiotic doxicycline (DOX). 4188 cells are further described at Jain, M. et al. Sustained loss of a neoplastic phenotype by brief inactivation of MYC. Science 297, 102-104 (2002). […]
The cell proliferation was determined by using the CellTiterA96 assay (Promega). […]
Cell death was monitored in the cells by cell cytometry. […]

myc = test: Western blot of myc after c-myc siRNA delivery in 4188 cells; type: cell-based
Description: Typical incubations were carried out by incubating 4188 cells with the NT conjugates for periods ranging from 12-14 h at 37° C. and 5% CO2 atmosphere. In addition to our positive incubation with our disulfide containing conjugate, SWNT-SS-siRNAmyc (typical [NT} ≈20 nM and [siRNA] ≈500 nM in incubation), control incubations were also carried out with DOX at a concentration 2 ng/mL, commercially available transfecting agent lipofectamine-myc complex and finally with a mixture of SWNT suspension and myc siRNA solution.
The proliferation of the cells was also examined by the use of a colorimetric MTS-based assay. […] In order to verify that the decrease in cell viability and proliferation was in fact a result of the knockdown of myc in the lymphoma cells, western blots were performed on the respective cellysates. The myc band was absent for the SWNT-SS-siRNAmyc and DOX treated cell.

With `C[C@H]1c2cccc(O)c2C(O)=C2C(=O)[C@]3(O)C(O)=C(C(N)=O)C(=O)[C@@H](N(C)C)[C@@H]3[C@@H](O)[C@@H]21` [DOX, doxicycline] as the molecule, how does the cell density (4188 cells) read?
The cell density was “some reduction in the cell density”.

What about the “myc band in western blot” value (myc) of the same molecule?
Its value is “absent”.

Source: patent publication US8795734B2, “Hydrophobic nanotubes and nanoparticles as transporters for the delivery of drugs into cells” (The Board of Trustees of the Leland Stanford Junior …, priority 2005, dated 2014)
